Results as given in PMC5095173, “Disulfide-activated protein kinase G Iα regulates cardiac diastolic relaxation and fine-tunes the Frank–Starling response” (Nature Communications, 2016).
Where no end group is shown, it is not given here. [ ]: non-standard residue; d: D form. pT = C[C@@H](OP(=O)(O)O)[C@H](N)C(=O)O; Met(O) = CS(=O)CC[C@H](N)C(=O)O; pS = N[C@@H](COP(=O)(O)O)C(=O)O

Tests used:
[1] = test system: PKGIα (analogue-sensitive M438G), disulfide-activated; test: Chemical genetic phosphoproteomic screen, disulfide-activated PKGIα M438G versus unactivated control; type: biochemical, human PKGIα; substrates in rat heart homogenate; settings: for Log2 fold change in phosphorylation, Disulfide versus control: disulfide-activated PKGIα M438G vs basal, 1 h, 30 °C, pH 7.5, rat heart homogenate, label-free LC–MS/MS, * P<0.05 Dunnett: only phospholamban S16; for log2 fold change Disulfide vs Control: control = PKGIα C42S/M438G; for log2 fold changes: Group 2 (disulfide-activated) vs Group 3 (control)
Excerpt: (§1) We employed a chemical genetic method[18] to identify direct substrates of cGMP-activated PKGIα and disulfide bond-activated PKGIα in heart tissue. This method involves mutation of the ATP binding-site of the kinase of interest so that it can accept a ‘bulky' N6-alkylated ATP analogue for example, N6^−phenylethyl ATP. An oxygen atom on the γ phosphate is also replaced with a sulfur atom—giving an N6-alkylated ATPγS analogue—so that the mutant kinase catalyses the transfer of a thiophosphate group (–PO3S^3−) to its substrates instead of a phosphate. The thiophosphate group is nucleophilic, providing a basis for substrates of the analogue-sensitive kinase to be purified by a ‘covalent capture' protocol. LC–MS/MS allows identification of the substrate and localization of the phosphorylation site. Thiophosphorylated proteins can also be detected with a thiophosphate ester-specific antibody. Analogue-sensitive mutants of PKGIα and PKGIα C42S (which cannot form the activating intermolecular disulfide bond) were generated by mutating Met438 in the ATP-binding domain to Gly. This mutation was chosen based on a previous study where an analogue-sensitive mutant of the catalytic subunit of PKA—which shares sequence homology with PKGIα—was engineered. Detailed protocols are given below.
(§2) A pCDNA3 expression vector encoding human FLAG-tagged PKGIα (ref. [41]) underwent site-directed mutagenesis to generate constructs for untagged WT, C42S, M438G and C42S/M438G PKGIα. Mutations were introduced using the QuikChange II Site-Directed Mutagenesis Kit (Agilent) according to the manufacturer's instructions. Expression and purification of the PKGIα mutants was performed according to a published method[42] as follows: suspension FreeStyle 293-F cells (ThermoFisher Scientific) were transfected with the appropriate PKGIα construct using the stable cationic polymer polyethyleneimine (PEI) as a transfection reagent. After ∼72 h cells were harvested by centrifugation (400g; room temperature; 15 min), re-suspended in ice cold lysis buffer (25 mM sodium phosphate buffer pH 6.8; 10 mM ethylenediaminetetraacetic acid (EDTA); 100 mM NaCl; 10 mM benzamidine hydrochloride; and 10 mM dithiothreitol (DTT)) and frozen in liquid N2. Cells were lysed by three freeze (liquid N2)-thaw (37 °C) cycles and the lysate was clarified by centrifugation at 140,000g and 4 °C for 30 min. The soluble protein fraction was loaded onto a pre-equilibrated 8-(2-aminoethylamino)adenosine-3′, 5′-cyclic monophosphate column (8-AEA-cAMP agarose; BioLog, Germany) followed by washing with 20 column volumes of lysis buffer. The column was further washed with lysis buffer +3 M NaCl (5 column volumes) and PKGIα was then eluted with lysis buffer +150 mM NaCl and 500 μM cAMP. Removal of cAMP and buffer exchange was achieved by extensive dialysis against 25 mM sodium phosphate buffer pH 6.8, 2 mM EDTA and 100 mM NaCl. For ITC analysis, WT PKGIα was incubated with 10 mM lipoic acid for 2 h on ice to obtain ∼100% disulfide dimer (confirmed by SDS-PAGE). Oxidized WT or C42S PKGIα was further purified by size exclusion chromatography using a HiLoad 16/600 Superdex 200 pg column (GE Healthcare) with 50 mM sodium phosphate buffer pH 7.4 and 100 mM NaCl. Proteins were concentrated using Amicon Ultra centrifugal filter devices (Merck Millipore). DTT was absent in storage buffers so that the activating disulfide bond would not be reduced and so that the PKGIα M438G mutant would be oxidized to disulfide dimer in the presence of air (confirmed by SDS-PAGE). Protein concentration was determined by Pierce BCA assay (ThermoFisher) and enzyme activity was confirmed using the Omnia kinase assay kit (ThermoFisher).
(§3) Male Wistar rats (9–10 weeks; body weight 300–330 g) were euthanized by intraperitoneal injection of sodium pentobarbitone (200 mg kg^−1) with heparin (500 USP units). […]

[2] = test system: PKGIα (analogue-sensitive C42S/M438G), cGMP-activated; test: Chemical genetic phosphoproteomic screen, cGMP-activated PKGIα C42S/M438G versus unactivated control; type: biochemical, human PKGIα; substrates in rat heart homogenate; settings: for Log2 fold change in phosphorylation, cGMP versus control: PKGIα C42S/M438G + 100 μM cGMP vs basal, 1 h, 30 °C, pH 7.5, rat heart homogenate, label-free LC–MS/MS, n=4, * P<0.05 Dunnett: all values except phospholamban S16; for log2 fold change cGMP vs Control: control = PKGIα C42S/M438G; for log2 fold changes: Group 1 (cGMP-activated) vs Group 3 (control)
Excerpt: as §1, §2, §3

Row | Substance | log2 fold change Disulfide vs Control [1] | log2 fold change cGMP vs Control [2] | also measured
1 | CAP-Gly domain-containing linker protein 2: PKGIα substrate, phospho site S353 | – | – | Log2 fold change in phosphorylation, Disulfide versus control ([1]; n=4): 0.98; Log2 fold change in phosphorylation, cGMP versus control [2]: 2.05*
2 | Cardiac phospholamban: PKGIα substrate, phospho site S16 (MEKVQYLTRSAIRRA[pS]TIEMPQQARQNLQNLFINFCLILICLLLICIIVMLL; cysteine pairing not given here; UniProt P61016 1-52, looked up) | – | – | Log2 fold change in phosphorylation, Disulfide versus control ([1]; n=4): 0.41*; Log2 fold change in phosphorylation, cGMP versus control [2]: −0.81
3 | Clip2 pS353 | 0.983 | 2.051 | –
4 | E3 ubiquitin-protein ligase TRIP12: PKGIα substrate, phospho site S1073 | – | – | Log2 fold change in phosphorylation, Disulfide versus control ([1]; n=4): 0.66; Log2 fold change in phosphorylation, cGMP versus control [2]: 1.63*
5 | Foxo1 pS270 | 0.7421 | 0.9588 | –
6 | Limd1 pS303 | 2.11 | 2.801 | –
7 | Map1a pS460 | 0.5914 | 2.406 | –
8 | Microtubule-associated protein 1A: PKGIα substrate, phospho site S460 | – | – | Log2 fold change in phosphorylation, Disulfide versus control ([1]; n=4): 0.59; Log2 fold change in phosphorylation, cGMP versus control [2]: 2.41*
9 | Mink1 pS997 (KG[pS]VVNVNPTNTR) | 0.583 | 0.5982 | –
10 | Mrps31 pS191 (RVSFTQIISNMK; also: phosphoserine (pS191), site in peptide not given here) | 0.1676 | 0.6921 | –
11 | Mthfd1 pT545 (KITIGQAPTEK; also: phosphothreonine (pT545), site in peptide not given here) | 1.475 | 3.681 | –
12 | Mybbp1a pS1318 (ARLSLVSR; also: phosphoserine (pS1318), site in peptide not given here) | -0.09923 | -0.9192 | –
13 | Mylk3 pS155 (KG[pS]LADGPEENKEQAEVAGVKPK) | 1.131 | 3.16 | –
14 | Nucb1 pS368 (AQRL[pS]QETEALGR) | 3.208 | 5.775 | –
15 | Nucb2 pS85 (SGRLSQELDLVSHK; also: phosphoserine (pS85), site in peptide not given here) | -0.4443 | -1.746 | –
16 | Olr1571 pS170 (AISSSQGK; also: phosphoserine (pS170), site in peptide not given here) | -1.218 | -4.008 | –
17 | Pcnp pS95 (KASAISIR; also: phosphoserine (pS95), site in peptide not given here) | 0.1824 | -1.793 | –
18 | Pde4a pS140 (RE[pS]FLYR) | 1.1526 | 1.223 | –
19 | Pln pS16 (RA[pS]TIEMPQQAR; not fully specified (residue 7)) | 0.4097 | -0.8119 | –

Row | Substance | log2 fold change Disulfide vs Control [1] | log2 fold change cGMP vs Control [2] | also measured
20 | Prkcdbp pS199 (KG[pS]EAAQPTPVKPPR) | 1.3478 | 1.54 | –
21 | Protein SET: PKGIα substrate, phospho site S7 | – | – | Log2 fold change in phosphorylation, Disulfide versus control ([1]; n=4): 1.76; Log2 fold change in phosphorylation, cGMP versus control [2]: 3.80*
22 | Prrc2a pS457 | 0.2134 | 0.5056 | –
23 | RApSTIEMPQQAR [phosphopeptide from the cardiac protein phospholamban] | – | – | phosphopeptide abundance relative to control, PKGIα activated by Cys42 oxidation ([1]; PLN pSer16, P<0.05, n=4): significantly increased relative to control
24 | Rnf123 pS690 (FLSTAAVSL[Met(O)]TPR; also: phosphoserine, site not given here) | -1.634 | 3.971 | –
25 | Ryr2 pS2798 (RISQTSQVSIDAAHGYSPR; also: phosphoserine (pS2798), site in peptide not given here) | – | – | log2 fold changes [1]: -0.1315; log2 fold changes [2]: 1.758
26 | Sarnp pS138 (GLSSDTKP[Met(O)]VNLDK; also: phosphoserine, site not given here) | – | – | log2 fold changes [1]: 1.9607; log2 fold changes [2]: 4.118
27 | Set pS7 (RQ[pS]AILPQPK) | 1.764 | 3.804 | –
28 | Snx17 pS437 (LSSKLSAVSLR; also: phosphoserine pS437, several Ser, place not given here) | – | – | log2 fold changes [1]: 1.271; log2 fold changes [2]: 3.5
29 | Speg pS2019 | – | – | log2 fold changes [1]: 1.452; log2 fold changes [2]: 1.632
30 | Speg pS2135 | – | – | log2 fold changes [1]: 1.764; log2 fold changes [2]: 4.01
31 | Speg pS2410 | – | – | log2 fold changes [1]: -0.1096; log2 fold changes [2]: -0.7401
32 | Stmn1 pS31 (SKESVPEFPLSPPK; also: phosphoserine pS31, several Ser, place not given here) | – | – | log2 fold changes [1]: 0.3093; log2 fold changes [2]: 4.264
33 | Tnni3 pS151 | – | – | log2 fold changes [1]: -0.2077; log2 fold changes [2]: 2.921
34 | Tnni3 pS167 (AKE[pS]LDLR) | – | – | log2 fold changes [1]: 1.654; log2 fold changes [2]: 3.492
35 | Trip12 pS1073 | 0.661 | 1.63 | –
36 | Trmt10c pT377 (RKH[pT]GYLEVPEHSQAAFR) | 0.4487 | 1.984 | –
37 | Troponin I, cardiac muscle: PKGIα substrate, phospho site S167 | – | – | Log2 fold change in phosphorylation, Disulfide versus control ([1]; n=4): 1.65; Log2 fold change in phosphorylation, cGMP versus control [2]: 3.49*
38 | Wipf1 pS324 (NLSLTSPTPPLPSPGR; also: phosphoserine pS324, several Ser, place not given here) | – | – | log2 fold changes [1]: -0.2547; log2 fold changes [2]: 2.215
